One test has as its target T1, MtEccC3-ATPase3 (Mycobacterium tuberculosis, UniProt P9WNA9).
T1 construct: gene eccC3

Another test has as its target T2, MtEccC2-ATPase3 (Mycobacterium tuberculosis, UniProt O05450).
T2 construct: gene eccC2

Another test has as its target T3, MtEccC5-ATPase3 (Mycobacterium tuberculosis, UniProt P9WNA5).
T3 construct: gene eccC5

T2 sequence (O05450 1127-1396 limits assumed): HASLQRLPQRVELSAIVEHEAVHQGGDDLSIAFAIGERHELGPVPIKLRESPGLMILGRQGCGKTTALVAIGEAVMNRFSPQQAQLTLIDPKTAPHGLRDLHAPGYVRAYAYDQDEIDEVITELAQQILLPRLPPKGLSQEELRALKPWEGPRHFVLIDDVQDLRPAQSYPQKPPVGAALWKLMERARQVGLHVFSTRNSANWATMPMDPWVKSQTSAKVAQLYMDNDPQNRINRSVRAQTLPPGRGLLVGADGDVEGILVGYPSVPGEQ
T1 sequence (P9WNA9 1060-1330): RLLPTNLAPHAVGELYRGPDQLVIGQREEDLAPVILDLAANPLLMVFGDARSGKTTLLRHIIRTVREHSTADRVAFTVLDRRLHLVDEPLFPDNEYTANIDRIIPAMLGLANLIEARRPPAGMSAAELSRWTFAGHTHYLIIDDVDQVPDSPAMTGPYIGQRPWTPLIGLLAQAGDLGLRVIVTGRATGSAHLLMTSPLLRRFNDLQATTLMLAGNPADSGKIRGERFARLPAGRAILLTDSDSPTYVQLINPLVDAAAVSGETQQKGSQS
T3 sequence (P9WNA5 1125-1391): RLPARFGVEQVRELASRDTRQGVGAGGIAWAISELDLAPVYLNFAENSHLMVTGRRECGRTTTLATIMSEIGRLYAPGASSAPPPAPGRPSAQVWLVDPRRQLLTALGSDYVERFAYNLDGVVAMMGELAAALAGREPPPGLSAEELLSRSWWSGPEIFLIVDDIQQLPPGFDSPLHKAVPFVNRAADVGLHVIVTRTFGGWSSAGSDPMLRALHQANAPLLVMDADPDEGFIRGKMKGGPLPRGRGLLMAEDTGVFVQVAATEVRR

As to `Nc1ncnc2c1ncn2[C@@H]1O[C@H](COP(=O)(O)OP(=O)(O)OP(=O)(O)O)[C@@H](O)[C@H]1O` [ATP], the X-ray crystal structure entry on MtEccC3-ATPase3 is “In our structures, ATP and a magnesium ion bind to the nucleotide-binding site”; on MtEccC2-ATPase3, “In our structures, ATP and a magnesium ion bind to the nucleotide-binding site”; at MtEccC5-ATPase3, “In our structures, ATP and a magnesium ion bind to the nucleotide-binding site”.
